{"source": "patent US11350632B2", "about": "“Methods, compositions and systems for killing arthropods” (Imerys USA, Inc., priority 2016, dated 2022)", "experiment_in_all_cases": "Field trial weekly bioassay on pre-treated substrate", "format_in_all_cases": "in vivo", "key": {"Aedes aegypti": {"tested_on": "Aedes aegypti", "parameters": "mortality found (summary of field trial): concentration or dose not given beside the values", "description": "(§1) During a field trial in New Orleans, bioassays were performed with (1) the expanded, milled ultrafine perlite of Example 1, (2) a lambda-cyhalothrin insecticide (BASF) as positive control, and (3) a negative control (water only). Six samples of each insecticide (1) and (2) and the control (3) were tested against mosquito species Aedes aegypti (dengue and zika vector), Aedes albopictus (tiger mosquito), and Culex quinquefasciatus (nuisance mosquito) by spraying wood chips stored under houses using a STIHL SR 200 backpack sprayer (18 houses total). The houses were selected based on housing structure (raised house), backyard vegetation (green and lush), and location (suburban neighborhood).\n(§2) The lambda cyhalothrin (industry standard insecticide) was prepared according to manufacturer instructions. Lambda cyhalothrin insecticide was diluted with water for spray application. First the application tank was filled with one-half to three-fourths volume of water. The pH of the water was controlled between 5 and 7 using a buffering agent if necessary to adjust the pH. Next, lambda cyhalothrin insecticide was slowly added to the applicator tank water with maximum agitation. Finally, the tank was filled to the desired volume with continuous agitation while applying the spray. To prepare the perlite insecticide spraying solutions, two-thirds of a gallon of water, 0.32 ounces of non-ionic surfactant (Ninex MT615), and 2 lbs expanded, milled ultrafine perlite were thoroughly blended together in a spray tank. Another one-third gallon of water was then added for a total 1 gallon of spray solution containing 20% of ultrafine perlite mechanical insecticide, 79% of water and 1% of Ninex MT615 as dispersant. The ultrafine perlite solution was mixed directly prior to spraying.\n(§3) The ultrafine perlite insecticide, the positive control (lambda cyhalothrin) and the negative control (water) were sprayed directly under the raised houses and porches (which included eaves if reachable) and under vegetation with an applicator. Pre-treated substrates were also prepared for each location by applying the corresponding insecticide or control to a piece of pine. The target coverage was 5-8 ounces per 100 ft^2, with an average coverage of about 10 g/m^2 to 15 g/m^2.\n(§4) Adult mosquitos for each species were introduced to each location, and were identified and counted two weeks prior to the start of the bioassays. Weekly bioassays were performed to test the efficacy of the insecticides over time by collecting a pre-treated substrate from each site and placing ˜10 female mosquitos of the corresponding species into a labeled bioassay cup with the substrate. The cup was then placed in a growth chamber/counter (depending on temperature) for 1 hour and then 24 hours with sugar solution. The number of dead and live mosquitos was recorded and compared to determine the percent mortality. Results are shown in Tables 8-10, in which 100% indicates complete mortality of mosquitoes and 0% indicates zero mortality (no mosquito deaths)."}, "Aedes albopictus": {"tested_on": "Aedes albopictus", "parameters": "concentration or dose not given beside the values", "description": "as §1, §2, §3, §4"}, "Culex quinquefasciatus": {"tested_on": "Culex quinquefasciatus", "parameters": "concentration or dose not given beside the values", "description": "as §1, §2, §3, §4"}, "[1]": {"settings": "Week 0, ~10 female mosquitos with pre-treated substrate"}, "[2]": {"settings": "week not stated, each mosquito species"}}, "data": [{"smiles": "CC1(C)[C@H](C(=O)O[C@H](C#N)c2cccc(Oc3ccccc3)c2)[C@@H]1/C=C(\\Cl)C(F)(F)F", "note": "(racemic) [Lambda cyhalothrin, lambda-cyhalothrin]", "values": [{"measurement": "Mortality (%) of Andes aegypti", "setting": "Aedes aegypti; [1]", "result": 0, "unit": "%"}, {"measurement": "Mortality (%) of Andes aegypti", "setting": "Aedes aegypti; Week 1", "result": 0, "unit": "%"}, {"measurement": "Mortality (%) of Andes aegypti", "setting": "Aedes aegypti; Week 2", "result": 100, "unit": "%"}, {"measurement": "Mortality (%) of Andes aegypti", "setting": "Aedes aegypti; Week 3", "result": 100, "unit": "%"}, {"measurement": "Mortality (%) of Andes aegypti", "setting": "Aedes aegypti; Week 4", "result": 100, "unit": "%"}, {"measurement": "Mortality (%) of Andes aegypti", "setting": "Aedes aegypti; Week 5 (heavy rainfall)", "result": 100, "unit": "%"}, {"measurement": "Mortality (%) of Andes aegypti", "setting": "Aedes aegypti; Week 6", "result": 100, "unit": "%"}, {"measurement": "Mortality (%) of Andes aegypti", "setting": "Aedes aegypti; Week 7", "result": 100, "unit": "%"}, {"measurement": "Mortality (%) of Andes aegypti", "setting": "Aedes aegypti; Week 8", "result": 100, "unit": "%"}, {"measurement": "mortality found (summary of field trial)", "setting": "Aedes aegypti; [2]", "result": 100, "unit": "%"}, {"measurement": "Mortality (%) of Andes albopictus", "setting": "Aedes albopictus; [1]", "result": 0, "unit": "%"}, {"measurement": "Mortality (%) of Andes albopictus", "setting": "Aedes albopictus; Week 1", "result": 0, "unit": "%"}, {"measurement": "Mortality (%) of Andes albopictus", "setting": "Aedes albopictus; Week 2", "result": 100, "unit": "%"}, {"measurement": "Mortality (%) of Andes albopictus", "setting": "Aedes albopictus; Week 3", "result": 100, "unit": "%"}, {"measurement": "Mortality (%) of Andes albopictus", "setting": "Aedes albopictus; Week 4", "result": 100, "unit": "%"}, {"measurement": "Mortality (%) of Andes albopictus", "setting": "Aedes albopictus; Week 5 (heavy rainfall)", "result": 100, "unit": "%"}, {"measurement": "Mortality (%) of Andes albopictus", "setting": "Aedes albopictus; Week 6", "result": 100, "unit": "%"}, {"measurement": "Mortality (%) of Andes albopictus", "setting": "Aedes albopictus; Week 7", "result": 100, "unit": "%"}, {"measurement": "Mortality (%) of Andes albopictus", "setting": "Aedes albopictus; Week 8", "result": 100, "unit": "%"}, {"measurement": "mortality found (summary of field trial)", "setting": "Aedes albopictus; [2]", "result": 100, "unit": "%"}, {"measurement": "Mortality (%) of Culex quinquefasciatus", "setting": "Culex quinquefasciatus; [1]", "result": 0, "unit": "%"}, {"measurement": "Mortality (%) of Culex quinquefasciatus", "setting": "Culex quinquefasciatus; Week 1", "result": 0, "unit": "%"}, {"measurement": "Mortality (%) of Culex quinquefasciatus", "setting": "Culex quinquefasciatus; Week 2", "result": 100, "unit": "%"}, {"measurement": "Mortality (%) of Culex quinquefasciatus", "setting": "Culex quinquefasciatus; Week 3", "result": 100, "unit": "%"}, {"measurement": "Mortality (%) of Culex quinquefasciatus", "setting": "Culex quinquefasciatus; Week 4", "result": 97, "unit": "%"}, {"measurement": "Mortality (%) of Culex quinquefasciatus", "setting": "Culex quinquefasciatus; Week 5 (heavy rainfall)", "result": 100, "unit": "%"}, {"measurement": "Mortality (%) of Culex quinquefasciatus", "setting": "Culex quinquefasciatus; Week 6", "result": 93, "unit": "%"}, {"measurement": "Mortality (%) of Culex quinquefasciatus", "setting": "Culex quinquefasciatus; Week 7", "result": 100, "unit": "%"}, {"measurement": "Mortality (%) of Culex quinquefasciatus", "setting": "Culex quinquefasciatus; Week 8", "result": 100, "unit": "%"}, {"measurement": "mortality found (summary of field trial)", "setting": "Culex quinquefasciatus; [2]", "result": 100, "unit": "%"}]}]}
